Reference: patent publication US10111846B2, “S isomers of alpha-methyl-hydrocinnamic acid for the treatment of blood disorders” (priority 2009, dated 2018)
“And” between values parts separate entries of the source, which are not always exact repeats. Equal entries are not always repeated.

Columns and labels:
pH solubility profile [1] = type: physicochemical
Protocol: Sodium a-methyl hydrocinnamate was added to DI water in excess to determine the saturation solubility in water. The samples (n=3) were shaken and vortexed for about two hours to dissolve sodium a-methyl hydrocinnamate. […] The pH of the saturated solution was determined to be about 10.4.
The pH of the saturated aqueous solution was successively adjusted to pH values of 8, 7, 6, and 5 using 50% v/v phosphoric acid to determine the saturation solubility of each pH. To determine the saturation solubility at each pH, the aqueous layer obtained at each pH was diluted further in water and analyzed by UV. The pH solubility data and plot are presented in Table 1 and FIG. 13A, respectively.

pH stability profile = type: physicochemical; settings: for Assay, initial: unit assumed; for Assay, 1 Week 60° C. / Assay, 1 Week RT: in % (unit assumed)
Protocol: The pH stability profile was determined at pH values of 2, 5, 6, 7, 8, 9, and 13 respectively. A pH 7 phosphate buffer at a buffer concentration of 100 mM was initially prepared. Six different aliquots of this buffer were successively adjusted to pH values of 2, […], 6, 8, 9, and 13 using either 50% v/v phosphoric acid or 1N sodium hydroxide solution. Transferred 0.2 mL of sodium α-methyl hydrocinnamate stock solution and 1 mL of alcohol into a 10.0 mL volumetric flask was made up the volume with each of the seven buffer solutions to yield a final concentration of ˜4 mg/ml of sodium α-methyl hydrocinnamate.
Diluted 0.5 ml of each solution to 5 mL with diluent and analysed by HLPC per AM-013-RO to determine the initial concentration of sodium α-methyl hydrocinnamate. The solution was divided into two parts, one part was kept at room temperature (RT) and the other part was kept at 60° C. to evaluate the stability of sodium α-methyl hydrocinnamate.

pH solubility profile [2] = type: physicochemical; settings: 200 mg/mL
[3] = Solubility in pH 4.7 acetate buffer; type: physicochemical; settings: pH 4.7 acetate buffer (per USP), about 100 mg/mL
Protocol: The sodium α-methyl hydrocinnamate was added to pH 4.7 acetate buffer (per USP) at a concentration of about 100 mg/mL.

[4] = system: sub-lethally irradiated mouse model; assay: Sub-lethally irradiated (6 Gy) mouse model, ANC; type: in vivo, mice; settings: 500 mg/kg IP and 300 mg/kg IP after 6 Gy irradiation on day 0
Protocol: FIG. 9 is a graph of absolute neutrophil count (ANC) response to NaST7 (500 mg/kg IP and 300 mg/kg IP) after sub-lethal does of irradiation where mice were exposed to 6 Gy irradiation on day 0 and daily ST7 (enantiomer) was administered at two doses, beginning day 1.
In particular, absolute neutrophil count (ANC) increased after administration of NaST7 (500 mg/kg IP and 300 mg/kg IP) after sub-lethal does of irradiation (e.g., exposure to 6 Gy irradiation on day 0).

[5] = Solubility in phosphate buffer containing 20% cyclodextrin; type: physicochemical; settings: for Final pH (upon addition of drug): 250 mg/mL
Protocol: Phosphate buffer solutions at a target pH of 7 were prepared at buffer concentrations of 0.5M, 0.25M, and ˜0.1M, respectively. The buffer solutions contained 20% cyclodextrin.

[6] = Solubility in citrate buffer containing 30% cyclodextrin; type: physicochemical
Protocol: Solubility of sodium a-methyl hydrocinnamate and buffer capacity of pH 5 citrate buffers prepared at four different buffer concentrations were evaluated as presented in Table 3.

[7] = buffer pH 4*, pH 5* on addition of drug

## CC(Cc1ccccc1)C(=O)[O-].[Na+] (stereo not drawn) [sodium α-methyl hydrocinnamate]
pH solubility profile [1]; DI water, n=3
  saturation solubility in water: 655 mg/mL
pH solubility profile [1]; pH (average) 5
  Solubility, mg/mL, Average: 2.2 mg/mL
pH solubility profile [1]; pH (average) 6
  Solubility, mg/mL, Average: 2.8 mg/mL
  Solubility, mg/mL, samples 1, 2, 3: 2.7 mg/mL and 3.6 mg/mL and 2.2 mg/mL
pH solubility profile [1]; pH (average) 7
  Appearance: Turbid solution
  Solubility, mg/mL, Average: 559.0 mg/mL
  Solubility, mg/mL, samples 1, 2, 3: 653.5 mg/mL and 579.7 mg/mL and 443.8 mg/mL
pH solubility profile [1]; pH (average) 8
  Appearance: Clear solution
  Solubility, mg/mL, Average: 653.3 mg/mL
  Solubility, mg/mL, samples 1, 2, 3: 660.8 mg/mL and 663.6 mg/mL and 635.7 mg/mL
pH solubility profile [1]; pH (average) 10
  Appearance: Clear solution
  Solubility, mg/mL, Average: 655.1 mg/mL
  Solubility, mg/mL, samples 1, 2, 3: 631.7 mg/mL and 700.4 mg/mL and 633.3 mg/mL
pH solubility profile [1]; pH values of 7 and below
  solubility in aqueous solution: almost insoluble
pH solubility profile [1]; water
  pH of the saturated solution: about 10.4
pH stability profile; buffer pH 2
  pH, 1 Week 60° C.: 1.9
  pH, 1 Week RT: 2.2
  Assay, 1 Week 60° C.: 81.2
  Assay, 1 Week RT: 99.8
pH stability profile; buffer pH 2, ~4 mg/ml
  Assay, initial: 95.8%
pH stability profile; [7]
  pH, 1 Week 60° C.: 5.1
  pH, 1 Week RT: 5.3
  Assay, 1 Week 60° C.: 102.3
  Assay, 1 Week RT: 102.9
  Assay, initial: 98.8%
pH stability profile; buffer pH 6
  pH, 1 Week 60° C.: 6.0
  pH, 1 Week RT: 6.3
  Assay, 1 Week 60° C.: 102.9
  Assay, 1 Week RT: 102.9
  Assay, initial: 97.2%
pH stability profile; buffer pH 7
  pH, 1 Week 60° C.: 6.9
  pH, 1 Week RT: 7.2
  Assay, 1 Week 60° C.: 99.6
  Assay, 1 Week RT: 100.7
  Assay, initial: 94%
pH stability profile; buffer pH 8
  pH, 1 Week 60° C.: 8.1
  pH, 1 Week RT: 8.3
  Assay, 1 Week 60° C.: 100.8
  Assay, 1 Week RT: 100.4
  Assay, initial: 97.9%
pH stability profile; buffer pH 9
  pH, 1 Week 60° C.: 9.0
  pH, 1 Week RT: 9.2
  Assay, 1 Week 60° C.: 101.6
  Assay, 1 Week RT: 102.2
  Assay, initial: 98.8%
pH stability profile; buffer pH 13
  pH, 1 Week 60° C.: 12.7
  pH, 1 Week RT: 12.8
  Assay, 1 Week 60° C.: 12.9
  Assay, 1 Week RT: 11.2
  Assay, initial: 23.2%
pH stability profile; pH 2 solution stored for 1 week at 60° C.
  degradation: About 20%
pH stability profile; pH 13, initially
  degradation: About 80%
pH stability profile; pH 13, storage for 1 week at both room temperature and 60° C.
  degradation: 90%
pH stability profile; pH range of 2-9 at room temperature
  time stable: at least 1 week
pH stability profile; pH range of 5 to 9 when stored at 60° C.
  stability: stable for at least one week
pH solubility profile [2]
  pH of aqueous solution: about 10
[3]
  behaviour in acetate buffer: observed to separate from the aqueous layer
[4]
  absolute neutrophil count (ANC): increased
[5]; 0.5M, 0.25M, ~0.1M, 20% cyclodextrin, target formulation concentration
  solubility in phosphate buffer solutions: observed to dissolve at the target formulation concentration
[5]; phosphate buffer 0.25 M, 20% Captisol, initial pH 6.3
  Final pH (upon addition of drug): 7.0
[5]; phosphate buffer 0.25 M, 20% Trappsol, initial pH 6.3
  Final pH (upon addition of drug): 6.8
[5]; phosphate buffer 0.5 M, 20% Captisol, initial pH 6.2
  Final pH (upon addition of drug): 6.8
[5]; phosphate buffer 0.5 M, 20% Trappsol, initial pH 6.3
  Final pH (upon addition of drug): 6.7
[5]; phosphate buffer ~0.1 M, 20% Captisol, initial pH 6.8
  Final pH (upon addition of drug): 7.9
[5]; phosphate buffer ~0.1 M, 20% Trappsol, initial pH 6.8
  Final pH (upon addition of drug): 7.6
[6]; 0.25M and 0.1M citrate buffer, 30% Trappsol
  change of pH of buffer solution upon addition of target concentration: 1.5-2 units
[6]; 0.5M and 1 M
  solubility in citrate buffers of high concentrations: not soluble
[6]; citrate buffer 0.1 M, 30% Captisol, initial pH 4.9, 100 mg/ml
  Solubility (appearance): Clear
[6]; citrate buffer 0.1 M, 30% Captisol, initial pH 4.9, 250 mg/ml
  Solubility (appearance): Clear
[6]; citrate buffer 0.1 M, 30% Captisol, initial pH 4.9, after addition of drug
  pH: 7.3
[6]; citrate buffer 0.1 M, 30% Trappsol, initial pH 5.1, 100 mg/ml
  Solubility (appearance): Clear
[6]; citrate buffer 0.1 M, 30% Trappsol, initial pH 5.1, 250 mg/ml
  Solubility (appearance): Clear
[6]; citrate buffer 0.1 M, 30% Trappsol, initial pH 5.1, after addition of drug
  pH: 7.0
[6]; citrate buffer 0.25 M, 30% Trappsol, initial pH 5.1, 100 mg/ml
  Solubility (appearance): Clear
[6]; citrate buffer 0.25 M, 30% Trappsol, initial pH 5.1, 250 mg/ml
  Solubility (appearance): Clear
[6]; citrate buffer 0.25 M, 30% Trappsol, initial pH 5.1, after addition of drug
  pH: 6.5
[6]; citrate buffer 1.0, 0.5, 0.25 M, 30% Captisol, initial pH 4.9, 100 mg/ml
  Solubility (appearance): Insoluble
[6]; citrate buffer 1.0, 0.5 M, 30% Trappsol, initial pH 5.1, 100 mg/ml
  Solubility (appearance): Insoluble
